Reference: patent US20080102111A1, “Anticancer Composition for Oral Use Comprising Liposome Containing Phytosterols and Prevention or Treatment for Cancer Using the Liposome” (priority 2005, published 2008)

System: B16BL6 melanoma cells
Assay: Metastasis-inhibiting activity in B16BL6 melanoma cells by the liposome compositions (lung colony count)
Format: in vivo, C57BL6/J mice
Details: lung surface colonies on 21st day; 0.2 mL oral once per day up to 6th day; B16BL6 cells i.v. 3×10^4/animal on 7th day
Protocol: Twenty 5-week old C57BL6/J mice were divided into four groups. The control group received 0.2 mL phosphate-buffered physiological saline (PBS) once per day by forced oral administration up to and including the 6th day of keeping. In like manner, the liposome composition of Example 1 was orally administered instead of the PBS to the group designated as the liposomized β-sitosterol group; an aqueous suspension of ordinary, unliposomized β-sitosterol (contained the same amount of β-sitosterol as the liposomized β-sitosterol administered to the liposomized β-sitosterol group) was orally administered instead of the PBS to the group designated as the β-sitosterol group; and the liposome composition of Comparative Example 1 was orally administered instead of the PBS to the group designated as the liposomized cholesterol group. B16BL6 melanoma cells suspended in serum-free medium were administered intravenously (3×10^4/0.2 ml/animal) on the 7th day of keeping. The mice were dissected on the 21st day of keeping and the lungs were extirpated; the lung surfaces were inspected and the number of colonies was counted.

SMILES: CC[C@H](CC[C@@H](C)[C@H]1CC[C@H]2[C@@H]3CC=C4C[C@@H](O)CC[C@]4(C)[C@H]3CC[C@]12C)C(C)C [β-Sitosterol, β-sitosterol]
- Average number of colonies: 43
